Where a name gives a salt, the structure may show the parent alone.
Test system: HCT116
Settings: 72 h
Procedure, shortened: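 HCT116 cells were seeded at 250 per well in 1536-well plates and left 5 h to attach. CellTiter-Glo luminescence was scaled to vehicle (0%) and positive control (-100%), then pattern-corrected. IC50 and maximal efficacy came from four-parameter Hill fits.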

SMILES: C/C(=C1\CCOC(=O)S1)N(C=O)Cc1cnc(C)nc1N [Cycotiamine]
- IC50 cell viability (ICRF193 0 nM): > 45.8 µM
- IC50 cell viability (ICRF193 200 nM): > 45.8 µM

SMILES: OC(CCN1CCCCC1)(c1ccccc1)C1CCCC1 (stereo unspecified) [Cycrimine Hydrochloride]
- IC50 cell viability (ICRF193 0 nM): > 45.8 µM
- IC50 cell viability (ICRF193 200 nM): > 45.8 µM

SMILES: CN1CCC(=C2c3ccccc3C=Cc3ccccc32)CC1 [Cyproheptadine hydrochloride]
- IC50 cell viability (ICRF193 0 nM): > 45.8 µM
- IC50 cell viability (ICRF193 200 nM): > 45.8 µM

SMILES: CC(=O)O[C@]1(C(C)=O)CC[C@H]2[C@@H]3C=C(Cl)C4=CC(=O)[C@@H]5C[C@@H]5[C@]4(C)[C@H]3CC[C@@]21C [Cyproterone acetate]
- IC50 cell viability (ICRF193 0 nM): > 45.8 µM
- IC50 cell viability (ICRF193 200 nM): > 45.8 µM

SMILES: NCCS [Cysteamine hydrochloride]
- IC50 cell viability (ICRF193 0 nM): > 45.8 µM
- IC50 cell viability (ICRF193 200 nM): > 45.8 µM

SMILES: COP(=S)(OC)Oc1ccc(S(N)(=O)=O)cc1 [Cythioate]
- IC50 cell viability (ICRF193 0 nM): > 45.8 µM
- IC50 cell viability (ICRF193 200 nM): > 45.8 µM

SMILES: O=C(O)C(O)C(O)C(=O)O (stereo not drawn) [D(-)-Tartaric acid]
- IC50 cell viability (ICRF193 0 nM): > 45.8 µM
- IC50 cell viability (ICRF193 200 nM): > 45.8 µM

SMILES: OC[C@H]1O[C@H](O[C@H]2[C@H](O)[C@@H](O)C(O)O[C@@H]2CO)[C@H](O)[C@@H](O)[C@@H]1O (stereo partly drawn) [D-(+)-MALTOSE]
- IC50 cell viability (ICRF193 0 nM): > 45.8 µM
- IC50 cell viability (ICRF193 200 nM): > 45.8 µM

SMILES: O=C(O)[C@H](O)c1ccccc1 [D-(-)-Mandelic acid]
- IC50 cell viability (ICRF193 0 nM): > 45.8 µM
- IC50 cell viability (ICRF193 200 nM): > 45.8 µM

SMILES: C[C@@H](N)C(=O)O [D-Alanine]
- IC50 cell viability (ICRF193 0 nM): > 45.8 µM
- IC50 cell viability (ICRF193 200 nM): > 45.8 µM

SMILES: N[C@H](CC(=O)O)C(=O)O [D-Aspartic acid]
- IC50 cell viability (ICRF193 0 nM): > 45.8 µM
- IC50 cell viability (ICRF193 200 nM): > 45.8 µM

SMILES: CC12CCC(CC1=O)C2(C)C [D-Camphor]
- IC50 cell viability (ICRF193 0 nM): > 45.8 µM
- IC50 cell viability (ICRF193 200 nM): > 45.8 µM

SMILES: N[C@@H]1CONC1=O [D-Cycloserine]
- IC50 cell viability (ICRF193 0 nM): > 45.8 µM
- IC50 cell viability (ICRF193 200 nM): > 45.8 µM

SMILES: OC[C@@H](O)[C@H](O)[C@H](O)[C@@H](O)CO [D-Galactitol]
- IC50 cell viability (ICRF193 0 nM): > 45.8 µM
- IC50 cell viability (ICRF193 200 nM): > 45.8 µM

SMILES: O=C1O[C@@H]2[C@@H](O)[C@H](O)O[C@@H]2C1O (stereo partly drawn) [D-Glucuronolactone]
- IC50 cell viability (ICRF193 0 nM): > 45.8 µM
- IC50 cell viability (ICRF193 200 nM): > 45.8 µM

SMILES: N[C@H](CCC(=O)O)C(=O)O [D-Glutamic acid]
- IC50 cell viability (ICRF193 0 nM): > 45.8 µM
- IC50 cell viability (ICRF193 200 nM): > 45.8 µM

SMILES: NC(=O)CC[C@@H](N)C(=O)O [D-Glutamine]
- IC50 cell viability (ICRF193 0 nM): > 45.8 µM
- IC50 cell viability (ICRF193 200 nM): > 45.8 µM

SMILES: N[C@H](Cc1c[nH]cn1)C(=O)O [D-HISTIDINE]
- IC50 cell viability (ICRF193 0 nM): > 45.8 µM
- IC50 cell viability (ICRF193 200 nM): > 45.8 µM

SMILES: CC(C)C[C@@H](N)C(=O)O [D-Leucine]
- IC50 cell viability (ICRF193 0 nM): > 45.8 µM
- IC50 cell viability (ICRF193 200 nM): > 45.8 µM

SMILES: CN1CCC[C@@H]1c1cccnc1 [D-Nicotine]
- IC50 cell viability (ICRF193 0 nM): > 45.8 µM
- IC50 cell viability (ICRF193 200 nM): > 45.8 µM

SMILES: CC(C)(CO)[C@@H](O)C(=O)NCCC(=O)NCCSSCCNC(=O)CCNC(=O)[C@H](O)C(C)(C)CO [D-Pantethine]
- IC50 cell viability (ICRF193 0 nM): > 45.8 µM
- IC50 cell viability (ICRF193 200 nM): > 45.8 µM

SMILES: N[C@H](Cc1ccccc1)C(=O)O [D-Phenylalanine]
- IC50 cell viability (ICRF193 0 nM): > 45.8 µM
- IC50 cell viability (ICRF193 200 nM): > 45.8 µM

SMILES: N[C@H](CO)C(=O)O [D-SERINE]
- IC50 cell viability (ICRF193 0 nM): > 45.8 µM
- IC50 cell viability (ICRF193 200 nM): > 45.8 µM

SMILES: Cc1c(C)c2c(c(C)c1OC(=O)CCC(=O)O)CC[C@@](C)(CCC[C@H](C)CCC[C@H](C)CCCC(C)C)O2 [D-alpha-Tocopherol succinate]
- IC50 cell viability (ICRF193 0 nM): > 45.8 µM
- IC50 cell viability (ICRF193 200 nM): > 45.8 µM

SMILES: Cc1cc(O)cc2c1O[C@](C)(CCC[C@H](C)CCC[C@H](C)CCCC(C)C)CC2 [D-delta-Tocopherol]
- IC50 cell viability (ICRF193 0 nM): > 45.8 µM
- IC50 cell viability (ICRF193 200 nM): > 45.8 µM

SMILES: CCN(CC)C(=O)c1cccc(C)c1 [DEET]
- IC50 cell viability (ICRF193 0 nM): > 45.8 µM
- IC50 cell viability (ICRF193 200 nM): > 45.8 µM

SMILES: CN(C)CC(c1ccc(O)cc1)C1(O)CCCCC1 (stereo unspecified) [DESVENLAFAXINE SUCCINATE]
- IC50 cell viability (ICRF193 0 nM): > 45.8 µM
- IC50 cell viability (ICRF193 200 nM): > 45.8 µM

SMILES: OC[C@H]1OC(O)[C@H](O)[C@@H](O)[C@@H]1O (stereo partly specified) [DEXTROSE]
- IC50 cell viability (ICRF193 0 nM): > 45.8 µM
- IC50 cell viability (ICRF193 200 nM): > 45.8 µM

— the supplement of paper PMC12137928
